In patent US8153687B2, “Gallium complexes with polyalcohols and methods of use” (priority 2009, dated 2012):

Tested on: Pseudomonas aeruginosa
Assay: Topical treatment of a recalcitrant Pseudomonas aeruginosa infected diabetic foot ulcer (case)
Format: in vivo
Details: severe diabetic foot ulcer with biofilm formation

Row | Compound | response of the infection to treatment (topical treatment) | response of the infection to treatment (oral treatment)
1 | Oc1cc(Cl)ccc1Oc1ccc(Cl)cc1Cl [triclosan] | does not respond | 
2 | O=C(O)c1cn(C2CC2)c2cc(N3CCNCC3)c(F)cc2c1=O [ciprofloxacin] | does not respond | does not respond
3 | gentamicin | does not respond | 
